Earlier results in patent US6699847B2, “Antiparasitic formulation” (Pfizer Inc., priority 1998, dated 2004).

**Q.** With CO[C@H]1C[C@H](O[C@H]2[C@H](C)O[C@@H](O[C@@H]3/C(C)=C/C[C@@H]4C[C@@H](C[C@]5(C=C[C@H](C)[C@@H](C6CCCCC6)O5)O4)OC(=O)[C@@H]4C=C(C)[C@@H](O)[C@H]5OC/C(=C\C=C\[C@@H]3C)[C@]54O)C[C@@H]2OC)O[C@@H](C)[C@@H]1O [Doramectin] as the molecule, how does the solubility in water read?
**A.** sparingly soluble
